# Test results published in patent US12692254B2, “Benzimidazole inhibitors of PAD enzymes” (BRISTOL-MYERS SQUIBB COMPANY, priority 2018, dated 2026).
# Biological target: human PAD4 (hPAD4) (Homo sapiens, UniProt Q9UM07)
# Test: RFMS human PAD4 functional assay (rapid-fire mass spectrum)
# Assay type: biochemical
# Settings: 5 nM hPAD4 enzyme, 250 μM BAEE, 50 μM Calcium; 30 min preincubation, 90 min reaction at 37° C.
# Method in brief: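 PAD4 (10 nM) preincubated 30 min with compound (top final 50 μM), then BAEE substrate added in pH 7.5 HEPES buffer with DTT, 50 μM calcium, TPEN; 90 min at 37° C. After TCA quench, citrulline derivatized with phenyl glyoxal (4 mM final, 30 min, 37° C) and quantified by RapidFire MS against internal standard.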
# human PAD4 (hPAD4), sequence (Q9UM07 whole entry): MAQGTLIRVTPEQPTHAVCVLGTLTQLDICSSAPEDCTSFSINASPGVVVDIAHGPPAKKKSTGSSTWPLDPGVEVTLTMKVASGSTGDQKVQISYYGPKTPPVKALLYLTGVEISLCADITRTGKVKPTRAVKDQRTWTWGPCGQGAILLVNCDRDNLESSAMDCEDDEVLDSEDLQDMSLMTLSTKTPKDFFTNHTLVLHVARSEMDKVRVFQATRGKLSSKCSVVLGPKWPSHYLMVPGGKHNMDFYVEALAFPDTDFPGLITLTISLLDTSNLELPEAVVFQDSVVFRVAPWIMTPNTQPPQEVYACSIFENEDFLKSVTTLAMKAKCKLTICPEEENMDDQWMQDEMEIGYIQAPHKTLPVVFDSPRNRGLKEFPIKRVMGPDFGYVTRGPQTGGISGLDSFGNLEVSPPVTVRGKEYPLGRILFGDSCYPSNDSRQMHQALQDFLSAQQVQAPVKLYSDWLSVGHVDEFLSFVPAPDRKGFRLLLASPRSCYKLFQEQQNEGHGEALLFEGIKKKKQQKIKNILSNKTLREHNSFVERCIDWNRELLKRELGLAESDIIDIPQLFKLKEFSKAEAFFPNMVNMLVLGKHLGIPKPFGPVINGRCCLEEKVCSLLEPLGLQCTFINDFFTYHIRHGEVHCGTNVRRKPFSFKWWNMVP
row,SMILES,IC50
1,"COc1cc(C(=O)N2C[C@H](N)C[C@@H](F)C2)cc2nc(-c3cc4ccccc4n3CC3CC3)n(Cc3cnn(C)c3C)c12 [Example 506, (3R,5R)-1-{2-[1-(cyclopropylmethyl)-1H-indol-2-yl]-1-[(1,5-dimethyl-1H-pyrazol-4-yl)methyl]-7-methoxy-1H-1,3-benzodiazole-5-carbonyl}-5-fluoropiperidin-3-amine]",225 nM
2,"COc1cc(C(=O)N2C[C@H]3CC[C@@H]2[C@@H]3N)cc2nc(-c3cc4cccnc4n3C)n(C[C@@H]3CCN(c4ncccn4)C3)c12 [Example 232, (1R,4R,7R)-2-(7-methoxy-2-{1-methyl-1H-pyrrolo[2,3-b]pyridin-2-yl}-1-{[(3S)-1-(pyrimidin-2-yl)pyrrolidin-3-yl]methyl}-1H-1,3-benzodiazole-5-carbonyl)-2-azabicyclo[2.2.1]heptan-7-amine]",310 nM
3,COc1cc(C(=O)N2CC3CCC2[C@@H]3N)cc2nc(-c3cccn3CC3CC3)n(CC3CN(c4cncc(C#N)c4)C3)c12 (stereo partly shown) [Example 317],1190 nM
4,"COc1cc(C(=O)N2CC3CCC2[C@@H]3N)cc2nc(-c3cc4ccccc4n3CC3CC3)n(CCc3cn[nH]c3)c12 (stereo partly drawn) [Example 508, (7R)-2-{2-[1-(cyclopropylmethyl)-1H-indol-2-yl]-7-methoxy-1-[2-(1H-pyrazol-4-yl)ethyl]-1H-1,3-benzodiazole-5-carbonyl}-2-azabicyclo[2.2.1]heptan-7-amine]",289 nM
5,"COc1cc(C(=O)N2CC3(CCCNC3)C2)cc2nc(-c3cc4ccccc4n3CC3CC3)n(Cc3cnn(C)c3)c12 [Example 288, 2-{2-[1-(cyclopropylmethyl)-1H-indol-2-yl]-7-methoxy-1-[(1-methyl-1H-pyrazol-4-yl)methyl]-1H-1,3-benzodiazole-5-carbonyl}-2,6-diazaspiro[3.5]nonane]",1280 nM
6,"COc1nccc(N2CC(n3c(-c4cc5cccnc5n4CC4CC4)nc4cc(C(=O)N5C[C@H]6CC[C@@H]5[C@@H]6N)cc(OC)c43)C2)n1 [Example 71, (1R,4R,7R)-2-{2-[1-(cyclopropylmethyl)-1H-pyrrolo[2,3-b]pyridin-2-yl]-7-methoxy-1-[1-(2-methoxypyrimidin-4-yl)azetidin-3-yl]-1H-1,3-benzodiazole-5-carbonyl}-2-azabicyclo[2.2.1]heptan-7-amine]",111 nM
7,"COc1ccc2cc(-c3nc4cc(C(=O)N5C[C@H]6CC[C@@H]5[C@@H]6N)cc(OC)c4n3CC3CN(c4cccc(C#N)n4)C3)n(CC3CC3)c2n1 [Example 54, 6-[3-({5-[(1R,4R,7R)-7-amino-2-azabicyclo[2.2.1]heptane-2-carbonyl]-2-[1-(cyclopropylmethyl)-6-methoxy-1H-pyrrolo[2,3-b]pyridin-2-yl]-7-methoxy-1H-1,3-benzodiazol-1-yl}methyl)azetidin-1-yl]pyridine-2-carbonitrile]",162 nM
8,COc1cc(C(=O)N2CC3CCC2[C@@H]3N)cc2nc(-c3cc4cccnc4n3CC3CC3)n(CC3CN(S(=O)(=O)c4ccccc4)C3)c12 (stereo partly shown) [Example 326],197 nM
9,"COc1cc(C(=O)N2C[C@H]3CC[C@@H]2[C@@H]3N)cc2nc(-c3cc4cc(Cl)ccc4n3C)n(CC3CN(c4ccnc(C#N)n4)C3)c12 [Example 42, 4-[3-({5-[(1R,4R,7R)-7-amino-2-azabicyclo[2.2.1]heptane-2-carbonyl]-2-(5-chloro-1-methyl-1H-indol-2-yl)-7-methoxy-1H-1,3-benzodiazol-1-yl}methyl)azetidin-1-yl]pyrimidine-2-carbonitrile]",102 nM
10,"COc1cc(C(=O)N2C[C@H]3CC[C@@H]2[C@@H]3N)cc2nc(-c3cc4cccnc4n3CC3CC3)n(CC3CCN(C(=O)c4ccncn4)CC3)c12 [Example 233, (1R,4R,7R)-2-{2-[1-(cyclopropylmethyl)-1H-pyrrolo[2,3-b]pyridin-2-yl]-7-methoxy-1-{[1-(pyrimidine-4-carbonyl)piperidin-4-yl]methyl}-1H-1,3-benzodiazole-5-carbonyl}-2-azabicyclo[2.2.1]heptan-7-amine]",315 nM

# Results, then the compound that gave them:
row,IC50,SMILES
1,37 nM,"COc1cc(C(=O)N2CC3CCC2[C@@H]3N)cc2nc(-c3cc4cccnc4n3CC3CC3)n(C[C@@H]3CCN(c4ccnc(C#N)n4)C3)c12 (stereo partly drawn) [Example 205, 4-[(3R)-3-({5-[(1R,4R,7R)-7-amino-2-azabicyclo[2.2.1]heptane-2-carbonyl]-2-[1-(cyclopropylmethyl)-1H-pyrrolo[2,3-b]pyridin-2-yl]-7-methoxy-1H-1,3-benzodiazol-1-yl}methyl)pyrrolidin-l-yl]pyrimidine-2-carbonitrile]"
2,87 nM,"COc1cnc(N2CC(Cn3c(-c4cc5cccnc5n4CC4CC4)nc4cc(C(=O)N5C[C@H]6CC[C@@H]5[C@@H]6N)cc(OC)c43)C2)cn1 [Example 33, (1R,4R,7R)-2-{2-[1-(cyclopropylmethyl)-1H-pyrrolo[2,3-b]pyridin-2-yl]-7-methoxy-1-{[1-(5-methoxypyrazin-2-yl)azetidin-3-yl]methyl}-1H-1,3-benzodiazole-5-carbonyl}-2-azabicyclo[2.2.1]heptan-7-amine]"
3,48 nM,"COc1cc(C(=O)N2CC3CCC2[C@@H]3N)cc2nc(-c3cc4ccccc4n3CC3CC3)n(Cc3cnn(-c4cc(Cl)ccn4)c3)c12 (stereo partly drawn) [Example 392, (7R)-2-(1-{[1-(4-chloropyridin-2-yl)-1H-pyrazol-4-yl]methyl}-2-[1-(cyclopropylmethyl)-1H-indol-2-yl]-7-methoxy-1H-1,3-benzodiazole-5-carbonyl)-2-azabicyclo[2.2.1]heptan-7-amine]"
4,16 nM,"COc1cc(C(=O)N2CC3CCC2[C@@H]3N)cc2nc(-c3cc4ccccc4n3CC3CC3)n(CC3CN(C(=O)c4ccnc(F)c4)C3)c12 (stereo partly drawn) [Example 419, (7R)-2-{2-[1-(cyclopropylmethyl)-1H-indol-2-yl]-1-{[1-(2-fluoropyridine-4-carbonyl)azetidin-3-yl]methyl}-7-methoxy-1H-1,3-benzodiazole-5-carbonyl}-2-azaticyclo[2.2.1]heptan-7-amine]"
5,55 nM,"COc1cc(C(=O)N2C[C@H]3CC[C@@H]2[C@@H]3N)cc2nc(-c3cc4ccccc4n3CC3CC3)n(CC3CN(c4cncnc4C#N)C3)c12 [Example 19, 5-[3-({5-[(1R,4R,7R)-7-amino-2-azabicyclo[2.2.1]heptane-2-carbonyl]-2-[1-(cyclopropylmethyl)-1H-indol-2-yl]-7-methoxy-1H-1,3-benzodiazol-1-yl}methyl)azetidin-1-yl]pyrimidine-4-carbonitrile]"
6,102 nM,"COc1cc(C(=O)N2C[C@H]3CC[C@@H]2[C@@H]3N)cc2nc(-c3cc4cccnc4n3CC3CC3)n(CC3CN(C(=O)c4ccnc(N)n4)C3)c12 [Example 125, (1R,4R,7R)-2-(1-{[1-(2-aminopyrimidine-4-carbonyl)azetidin-3-yl]methyl}-2-[1-(cyclopropylmethyl)-1H-pyrrolo[2,3-b]pyridin-2-yl]-7-methoxy-1H-1,3-benzodiazole-5-carbonyl)-2-azabicyclo[2.2.1]heptan-7-amine]"
7,87 nM,"COc1ncc(-n2cc(Cn3c(-c4cc5ccccc5n4CC4CC4)nc4cc(C(=O)N5CC6CCC5[C@@H]6N)cc(OC)c43)cn2)cc1F (stereo partly drawn) [Example 410, (7R)-2-{2-[1-(cyclopropylmethyl)-1H-indol-2-yl]-1-{[1-(5-fluoro-6-methoxypyridin-3-yl)-1H-pyrazol-4-yl]methyl}-7-methoxy-1H-1,3-benzodiazole-5-carbonyl}-2-azabicyclo[2.2.1]heptan-7-amine]"
8,98 nM,"COc1cc(C(=O)N2C[C@H]3CC[C@@H]2[C@@H]3N)cc2nc(-c3cc4cccnc4n3CC3CC3)n(CC3CN(C(=O)c4ccnc(F)c4)C3)c12 [Example 122, (1R,4R,7R)-2-{2-[1-(cyclopropylmethyl)-1H-pyrrolo[2,3-b]pyridin-2-yl]-1-{[1-(2-fluoropyridine-4-carbonyl)azetidin-3-yl]methyl}-7-methoxy-1H-1,3-benzodiazole-5-carbonyl}-2-azabicyclo[2.2.1]heptan-7-amine]"
9,102 nM,"C=CC(=O)N1CC(Cn2c(-c3cc4cccnc4n3CC3CC3)nc3cc(C(=O)N4C[C@H]5CC[C@@H]4[C@@H]5N)cc(OC)c32)C1 [Example 124, 1-[3-({5-[(1R,4R,7R)-7-amino-2-azabicyclo[2.2.1]heptane-2-carbonyl]-2-[1-(cyclopropylmethyl)-1H-pyrrolo[2,3-b]pyridin-2-yl]-7-methoxy-1H-1,3-benzodiazol-1-yl}methyl)azetidin-1-yl]prop-2-en-1-one]"
10,78 nM,"COc1cc(C(=O)N2C[C@H]3CC[C@@H]2[C@@H]3N)cc2nc(-c3cc4ccccc4n3C)n(CC3CN(c4ccnc(C)n4)C3)c12 [Example 6, ((1R,4R,7R)-7-amino-2-azabicyclo[2.2.1]heptan-2-yl)(7-methoxy-2-(1-methyl-1H-indol-2-yl)-1-((1-(2-methylpyrimidin-4-yl)azetidin-3-yl)methyl)-1H-benzo[d]imidazol-5-yl)methanone]"
11,72 nM,"COc1cc(C(=O)N2C[C@H]3CC[C@@H]2[C@@H]3N)cc2nc(-c3cc4cccnc4n3CC3CC3)n(CC3CN(c4cncnc4)C3)c12 [Example 27, (1R,4R,7R)-2-{2-[1-(cyclopropylmethyl)-1H-pyrrolo[2,3-b]pyridin-2-yl]-7-methoxy-1-{[1-(pyrimidin-5-yl)azetidin-3-yl]methyl}-1H-1,3-benzodiazole-5-carbonyl}-2-azabicyclo[2.2.1]heptan-7-amine]"
12,26 nM,"COC(=O)c1cccc(-n2cc(Cn3c(-c4cc5cccnc5n4CC4CC4)nc4cc(C(=O)N5C[C@H](N)C[C@@H](F)C5)cc(OC)c43)cn2)n1 [Example 364, methyl 6-[4-({5-[(3R,5R)-3-amino-5-fluoropipendine-1-carbonyl]-2-[1-(cyclopropylmethyl)-1H-pyrrolo[2,3-b]pyridin-2-yl]-7-methoxy-1H-1,3-benzodiazol-1-yl}methyl)-1H-pyrazol-1-yl]pyridine-2-carboxylate]"
